Laboratory results as given in the supplement of paper PMC10627819.

Legend:
B. subtilis 168 [1] = assay: fitness (endpoint OD595 vs no drug) (fraction); higher = more growth
Summary of the method: (§1)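 Bacterial fitness was scored as optical density at the stationary-phase transition relative to the robust mean of no-drug control wells. Scores are capped at 1. The growth data were OD595 readings every 30 min for 14 h at 37 °C, background-subtracted against the first reading, from 384-well plates inoculated at OD595 0.01 in TSB, LB Lennox or CY.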

S. pneumoniae D39V [2] = assay: as above
Summary of the method: as §1

B. subtilis 168 [3] = assay: Bliss interaction score (quartile over a dose matrix) (fitness difference); higher = more antagonism (negative = synergy)
Summary of the method: (§2)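 Each OD595 reading at entry into stationary phase was scaled to the robust mean of the untreated wells on its plate, with a ceiling of 1. These ratios define fitness, and single-drug fitness was inferred from combinations. The Bliss score compares observed fitness with the product-based expectation and is reported as quartiles across all replicate types, technical, biological and donor/recipient.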

S. aureus DSM 20231 = assay: as above
Summary of the method: as §2

S. pneumoniae D39V [4] = assay: as above
Summary of the method: as §2

S. aureus Newman = assay: as above
Summary of the method: as §2
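Wherever Bliss interaction score (quartile over a dose matrix) is given: first quartile when negative (synergy) and third quartile when positive (antagonism).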
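Wherever fitness (endpoint OD595 vs no drug) is given: OD595 on entry to stationary phase over no-drug wells; at most 1.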

C[C@H]1COc2c(N3CCN(C)CC3)c(F)cc3c(=O)c(C(=O)O)cn1c23 [Levofloxacin] + CC(=O)NC[C@H]1CN(c2ccc(N3CCOCC3)c(F)c2)C(=O)O1 [Linezolid]
fitness, B. subtilis 168 [1], one replicate
Details | first compound 0.001 µg/mL | first compound 0.002 µg/mL | first compound 0.0039 µg/mL | first compound 0.0078 µg/mL
partner 0.0625 µg/mL | – | 0.886 | 0.846 | 0.862
partner 0.125 µg/mL | 0.82 | – | – | 0.615
partner 0.25 µg/mL | 0.66 | – | – | 0.0853
partner 0.5 µg/mL | 0.0709 | 0.0326 | 0.0626 | –

Details | fitness
B. subtilis 168 [1], first compound 0.002 µg/mL, partner 0.125 µg/mL | 0.696
B. subtilis 168 [1], first compound 0.0039 µg/mL, partner 0.125 µg/mL | 0.683
B. subtilis 168 [1], first compound 0.0312 µg/mL, partner 0.125 µg/mL | 0.0311
B. subtilis 168 [1], first compound 0.0312 µg/mL, partner 0.25 µg/mL | 0.0424
B. subtilis 168 [1], first compound 0.0312 µg/mL, partner 0.5 µg/mL | 0.045
B. subtilis 168 [1], first compound 0.0625 µg/mL, partner 0.125 µg/mL | 0.0397
B. subtilis 168 [1], first compound 0.0625 µg/mL, partner 0.25 µg/mL | 0.0517
B. subtilis 168 [1], first compound 0.0625 µg/mL, partner 0.5 µg/mL | 0.0516
B. subtilis 168 [1], first compound 0.125 µg/mL, partner 0.125 µg/mL | 0.0523
B. subtilis 168 [1], first compound 0.125 µg/mL, partner 0.25 µg/mL | 0.0524
B. subtilis 168 [1], first compound 0.125 µg/mL, partner 0.5 µg/mL | 0.0424
S. pneumoniae D39V [2], first compound 0.1725 µg/mL, partner 0.2 µg/mL | 0.848
S. pneumoniae D39V [2], first compound 0.1725 µg/mL, partner 0.4 µg/mL | 0.669
S. pneumoniae D39V [2], first compound 0.1725 µg/mL, partner 0.8 µg/mL | 0.333
S. pneumoniae D39V [2], first compound 0.2 µg/mL, partner 0.105 µg/mL | 0.81
S. pneumoniae D39V [2], first compound 0.2 µg/mL, partner 0.21 µg/mL | 0.694
S. pneumoniae D39V [2], first compound 0.2 µg/mL, partner 0.42 µg/mL | 0.568
S. pneumoniae D39V [2], first compound 0.345 µg/mL, partner 0.2 µg/mL | 0.777
S. pneumoniae D39V [2], first compound 0.345 µg/mL, partner 0.4 µg/mL | 0.591
S. pneumoniae D39V [2], first compound 0.345 µg/mL, partner 0.8 µg/mL | 0.295
S. pneumoniae D39V [2], first compound 0.4 µg/mL, partner 0.105 µg/mL | 0.72
S. pneumoniae D39V [2], first compound 0.4 µg/mL, partner 0.21 µg/mL | 0.652
S. pneumoniae D39V [2], first compound 0.4 µg/mL, partner 0.42 µg/mL | 0.506
S. pneumoniae D39V [2], first compound 0.69 µg/mL, partner 0.2 µg/mL | 0.555
S. pneumoniae D39V [2], first compound 0.69 µg/mL, partner 0.4 µg/mL | 0.323
S. pneumoniae D39V [2], first compound 0.69 µg/mL, partner 0.8 µg/mL | 0.196
S. pneumoniae D39V [2], first compound 0.8 µg/mL, partner 0.105 µg/mL | 0.449
S. pneumoniae D39V [2], first compound 0.8 µg/mL, partner 0.21 µg/mL | 0.351
S. pneumoniae D39V [2], first compound 0.8 µg/mL, partner 0.42 µg/mL | 0.284

Details | Bliss interaction score
B. subtilis 168 [3] | 0.0633
S. aureus DSM 20231 | 0.0666
S. aureus Newman | 0.0972
S. pneumoniae D39V [4] | 0.0612

CN(C)C(=O)C(CCN1CCC(O)(c2ccc(Cl)cc2)CC1)(c1ccccc1)c1ccccc1 [Loperamide] + Cc1cc(NS(=O)(=O)c2ccc(N)cc2)no1 [Sulfamethoxazol]
fitness, one replicate
Details | first compound 20 µg/mL | first compound 25 µg/mL | first compound 40 µg/mL | first compound 50 µg/mL | first compound 68.57 µg/mL | first compound 80 µg/mL | first compound 100 µg/mL
B. subtilis 168 [1], partner 0.5 µg/mL | – | 0.0806 | – | 0.009 | – | – | 0.0009
S. pneumoniae D39V [2], partner 1 µg/mL | ≥ 1 | – | ≥ 1 | – | 0.967 | 0.249 | –
S. pneumoniae D39V [2], partner 2 µg/mL | ≥ 1 | – | ≥ 1 | – | 0.968 | 0.89 | –
S. pneumoniae D39V [2], partner 4 µg/mL | 0.941 | – | 0.942 | – | ≥ 1 | 0.752 | –

fitness
Details | partner 1 µg/mL | partner 2 µg/mL | partner 4 µg/mL
B. subtilis 168 [1], first compound 25 µg/mL | – | – | 0.857
B. subtilis 168 [1], first compound 100 µg/mL | – | 0.0238 | 0.156
S. pneumoniae D39V [2], first compound 17.14 µg/mL | 0.92 | 0.936 | 0.989
S. pneumoniae D39V [2], first compound 34.28 µg/mL | 0.953 | 0.95 | 0.998

Details | Bliss interaction score
B. subtilis 168 [3] | -0.178
S. aureus DSM 20231 | -0.143
S. aureus Newman | 0.0631
S. pneumoniae D39V [4] | 0.0594

C[C@H]1COc2c(N3CCN(C)CC3)c(F)cc3c(=O)c(C(=O)O)cn1c23 [Levofloxacin] + COc1ccc(C[C@H](N)C(=O)N[C@H]2[C@@H](O)[C@H](n3cnc4c(N(C)C)ncnc43)O[C@@H]2CO)cc1 [Puromycin]
fitness, one replicate
Details | first compound 0.001 µg/mL | first compound 0.002 µg/mL | first compound 0.0039 µg/mL | first compound 0.2 µg/mL | first compound 0.4 µg/mL | first compound 0.8 µg/mL
B. subtilis 168 [1], partner 0.39 µg/mL | 0.961 | 0.909 | 0.834 | – | – | –
B. subtilis 168 [1], partner 0.78 µg/mL | 0.949 | 0.967 | 0.884 | – | – | –
B. subtilis 168 [1], partner 1.56 µg/mL | 0.934 | 0.909 | 0.868 | – | – | –
S. pneumoniae D39V [2], partner 1 µg/mL | – | – | – | 0.828 | 0.672 | 0.288
S. pneumoniae D39V [2], partner 2 µg/mL | – | – | – | 0.854 | 0.741 | 0.309
S. pneumoniae D39V [2], partner 4 µg/mL | – | – | – | 0.777 | 0.628 | 0.205

fitness
Details | first compound 0.0312 µg/mL | first compound 0.0625 µg/mL | first compound 0.125 µg/mL | first compound 0.1725 µg/mL | first compound 0.345 µg/mL | first compound 0.69 µg/mL
B. subtilis 168 [1], partner 0.39 µg/mL | 0.0269 | 0.0447 | 0.0177 | – | – | –
B. subtilis 168 [1], partner 0.78 µg/mL | 0.0422 | 0.0467 | 0.0355 | – | – | –
B. subtilis 168 [1], partner 1.56 µg/mL | 0.0415 | 0.0483 | 0.0409 | – | – | –
S. pneumoniae D39V [2], partner 1 µg/mL | – | – | – | 0.981 | 0.919 | 0.689
S. pneumoniae D39V [2], partner 2 µg/mL | – | – | – | 0.944 | 0.895 | 0.661
S. pneumoniae D39V [2], partner 4 µg/mL | – | – | – | 0.796 | 0.8 | 0.599

Details | Bliss interaction score
B. subtilis 168 [3] | -0.0129
S. aureus DSM 20231 | -0.0463
S. aureus Newman | -0.0822
S. pneumoniae D39V [4] | 0.0705
